Reference: the supplement of paper PMC11451515

Legend:
Assay in all cases: AUC of viability dose-response curve (% viability x log10 dose units); higher = less sensitive
Settings in all cases: 48 h
[1] = test system: NOMO1
Procedure, shortened: (§1)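 In 1536-well plates, leukemia cells adapted to each medium (500 or 1000 cells/well) were exposed for 48 h at 37°C to library compounds in DMSO across 11 threefold doses, 47 μM down to 0.79 nM. Viability was read by CellTiter-Glo One luminescence and normalised per plate to DMSO and cell-free wells. A four-parameter log-logistic fit over log10 doses was integrated by trapezoidal rule. This yielded the area under the curve, with over-full-viability curves scaled and quality-control failures dropped.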

[2] = test system: P12-Ichikawa
Procedure, shortened: as §1

[3] = test system: SEM cells
Procedure, shortened: as §1

[4] = RPMI 5 mM glucose + 10% dialyzed FBS

SMILES	AUC of viability dose-response curve ([1]; HPLM + 10% dialyzed FBS)	AUC of viability dose-response curve ([1]; RPMI 5 mM glucose + 10% FBS)	AUC of viability dose-response curve [1, 4]	AUC of viability dose-response curve ([2]; HPLM + 10% dialyzed FBS)	AUC of viability dose-response curve ([2]; RPMI 5 mM glucose + 10% FBS)	AUC of viability dose-response curve [2, 4]	AUC of viability dose-response curve ([3]; HPLM + 10% dialyzed FBS)	AUC of viability dose-response curve ([3]; RPMI 5 mM glucose + 10% FBS)	AUC of viability dose-response curve [3, 4]
COCCCN1CCC(NC(=O)c2cc(Cl)c(N)c3c2OCC3)CC1	460	456	468	465	467	473	453	451	454
C[N]1C=C(C2=C1C=CC=C2)\C3=C(\C(=O)NC3=O)C4=C5CC(CN)CC[N]5C6=C4C=CC=C6 (stereo not drawn)	452	443	460	456	440	443	395	399	420
COC1=CC=C(C=C1)C/2=C/OC3=C(C(=CC(=C3)O)O)C2=O	460	474	453	465	441	453	463	436	435
C\C1=C(\C=C(C#N)/C(=O)N1)C2=C[N]3C=CN=C3C=C2	407	393	405	419	394	375	383	424	411
CC[C@H](C)[N]1C=C(C)C2=C1C=C(C=C2C(=O)NC\C3=C(C)\C=C(\C)NC3=O)C4=CC=C(N=C4)N5CCNCC5	469	475	467	476	468	474	474	472	463
FC(F)c1nc2ccccc2n1-c1nc(N2CCOCC2)nc(N2CCOCC2)n1	260	329	333	413	367	394	325	351	326
COc1cc2c(cc1OC)CC(=O)N(CCCN(C)C[C@H]1Cc3cc(OC)c(OC)cc31)CC2.Cl	466	463	440	475	477	459	464	465	469
CC(N)C12CC3CC(CC(C3)C1)C2 (stereo not drawn)	453	437	443	449	456	455	468	447	477
CNC1CCC(N(Cc2cccc(-c3ccncc3)c2)C(=O)c2sc3c(F)ccc(F)c3c2Cl)CC1 (stereo not drawn)	453	470	466	467	466	463	455	464	445
CN1CCCN=C1/C=C/c1cccs1.O=C(O)c1cc2ccccc2c(Cc2c(O)c(C(=O)O)cc3ccccc23)c1O	417	446	436	413	462	462	467	442	453
C[C@@H]\1CC(=O)N\N=C1C2=CC=C(NN=C(C#N)C#N)C=C2	426	410	413	424	417	392	397	368	393
C#C[C@]1(O)CC[C@H]2[C@@H]3CCc4cc(O)ccc4[C@H]3CC[C@@]21C	444	442	429	441	418	410	442	440	448
C=CC(=O)N1CCC[C@@H](n2nc(-c3ccc(Oc4ccccc4)cc3)c3c(N)ncnc32)C1	462	446	467	414	458	452	456	443	424
CC(C)CC(=O)N[C@H](C(=O)N[C@H](C(=O)N[C@@H](CC(C)C)[C@@H](O)CC(=O)N[C@@H](C)C(=O)N[C@@H](CC(C)C)[C@@H](O)CC(=O)O)C(C)C)C(C)C	450	445	467	471	476	477	443	435	437
COc1cc2nccc(Oc3ccc(NC(=O)NC4CC4)c(Cl)c3)c2cc1C(N)=O	439	448	445	429	429	430	378	378	359
O=C(O[C@H]1C[C@H]2CC[C@@H](C1)[N+]21CCCC1)C(O)(c1ccccc1)c1ccccc1.[Cl-]	472	462	467	461	464	470	460	437	449

SMILES	AUC of viability dose-response curve ([1]; HPLM + 10% dialyzed FBS)	AUC of viability dose-response curve ([1]; RPMI 5 mM glucose + 10% FBS)	AUC of viability dose-response curve [1, 4]	AUC of viability dose-response curve ([2]; HPLM + 10% dialyzed FBS)	AUC of viability dose-response curve ([2]; RPMI 5 mM glucose + 10% FBS)	AUC of viability dose-response curve [2, 4]	AUC of viability dose-response curve ([3]; HPLM + 10% dialyzed FBS)	AUC of viability dose-response curve ([3]; RPMI 5 mM glucose + 10% FBS)	AUC of viability dose-response curve [3, 4]
N=C(NCCCCCCNC(=N)NC(=N)Nc1ccc(Cl)cc1)NC(=N)Nc1ccc(Cl)cc1	454	409	440	452	416	419	453	468	420
O=C(O)c1ccc2c(c1)nc(Nc1cccc(Cl)c1)c1ccncc12	425	437	441	453	437	429	421	412	406
CN(C)[C@H]\1[C@@H]2C[C@H]3C(=C(O)\[C@]2(O)C(=O)\C(=C1O)C(N)=O)/C(=O)C4=C(O)C=CC=C4[C@@]3(C)O	468	443	454	470	467	461	426	441	452
C=C[C@H]1CN2CC[C@H]1C[C@H]2[C@H](O)c1ccnc2ccc(OC)cc12	464	443	469	458	466	446	472	442	431
C/C=C1\C2C=C(C)CC1(N)c1ccc(=O)[nH]c1C2 (stereo not drawn)	463	467	465	471	447	442	442	458	463
CCC[C@H]1C[C@H](C(=O)N[C@@H]([C@@H]2O[C@@H](SC)[C@@H](O)[C@@H](O)[C@H]2O)[C@H](C)Cl)N(C)C1	459	430	439	465	455	467	447	450	447
CN1C[C@H]2c3ccccc3Oc3ccc(Cl)cc3[C@@H]2C1	440	410	418	436	462	410	372	395	396
COc1ccc(C(C)=O)c(O)c1	350	366	381	422	421	423	439	450	462
NC(=O)c1ccc(I)c([N+](=O)[O-])c1	468	475	464	461	457	468	473	470	467
N#Cc1c(NC(=O)c2cccc3ccccc23)sc2c1CCCC2	345	339	346	325	325	346	318	304	310
CCOC(=O)C/1=C(O)/C(=O)N(CC2=CC=CC=C2)C1	459	446	462	462	466	468	463	469	468
O=C(Nc1c(Cl)cncc1Cl)c1ccc(OC(F)F)c(OCC2CC2)c1	459	465	476	475	467	466	453	452	455
S=P(N1CC1)(N1CC1)N1CC1	468	458	468	452	470	448	455	446	441
CN[C@@H]1[C@H](O)[C@H](NC)[C@H]2O[C@@]3(O)C(=O)C[C@@H](C)O[C@H]3O[C@@H]2[C@H]1O	438	424	467	457	450	446	465	445	458
COc1cc2ncnc(Nc3cc(Br)c(O)c(Br)c3)c2cc1OC	477	470	467	473	469	472	458	462	461
O=C(O)C1=NC(C(=O)O)CC(/C=C/N2c3cc(O)c(OC4OC(CO)C(O)C(O)C4O)cc3CC2C(=O)O)=C1 (stereo not drawn)	462	465	421	463	450	462	467	466	461
